Test results taken from PMC2954314 (European Journal of Pharmaceutical Sciences, 2010).
Entries after “also recorded” stand apart in the source; their conditions may differ. Structures can show the parent of a compound that is named as a salt.

Experiments:
[1] = molecular target: κ opioid receptor (Cavia porcellus, UniProt P41144); assay: Opioid receptor competition binding, [3H]U69,593, guinea pig brain membranes
[2] = molecular target: δ opioid receptor (Rattus norvegicus, UniProt P33533); assay type: binding
[3] = molecular target: μ opioid receptor (Rattus norvegicus, UniProt P33535); assay: Opioid receptor competition binding, [3H]DAMGO, rat brain membranes
[4] = test system: mice; assay: Tail-flick test after s.c. administration; assay type: in vivo; conditions: Mus musculus, sc, 0.5 h, read-out: ED50 Tail-flick test
[5] = test system: mice; assay: Rotarod test of motor coordination after s.c. administration; assay type: in vivo, mouse; conditions: 10 mg/kg (dose range 1.25–10 mg/kg), 30 min
[6] = test system: mice; assay: Hot-plate test after s.c. administration; assay type: in vivo; conditions: Mus musculus, sc, 0.5 h, read-out: ED50 Hot-plate test
[7] = molecular target: δ opioid receptor; conditions: read-out: Ki δ; ref Spetea et al., 2005; cited from earlier work
[8] = molecular target: κ opioid receptor; conditions: read-out: Ki κ; ref Spetea et al., 2005; cited from earlier work

COc1ccc2c3c1O[C@@]1(Cc4ccccc4)C(=O)C=C[C@@]4(OC)[C@@H](C2)N(C)CC[C@]314 [Compound 3, 5β-Benzyl-14-methoxycodeinone hydrochloride]
Ki [1]: 1890 ± 453 nM
Ki [2]: > 10000 nM
Ki [3]: 34.1 ± 6 nM

CN1CC[C@]23c4c5ccc(O)c4O[C@H]2[C@@H](O)C=C[C@H]3[C@H]1C5 [Morphine, Morphine hydrochloride]
ED50 [4]: 2.29 mg/kg
Effect on motor coordination (rotarod latencies) [5]: significant effect; also recorded: dose-dependent suppressive effects on motor coordination with significance
ED50 [6]: 2.63 mg/kg
